Laboratory results published in patent publication US12447153B2, “HER2 mutation inhibitors” (Array BioPharma Inc., priority 2021, dated 2025).

Experiments:
EGFR wild type (EGFR WT) = EGFR wild type (EGFR WT) (Homo sapiens (Human), UniProt P00533); assay: Cellular Phosphorylation Assay, Assay 5 (EGF-stimulated EGFR phosphorylation, NIH 3T3 cells); assay type: cell-based
[1] = target: ErbB2 with Exon 20 YVMA insertion (HER2-YVMA) (Homo sapiens (Human), UniProt P04626, INS775YVMA); assay: Cellular Phosphorylation Assay, Assay 4 (constitutive ErbB2 phosphorylation, NIH 3T3 cells); assay type: cell-based
Experimental: NIH 3T3 cells were engineered to express ErbB2 with Exon 20 YVMA insertion (HER2-YVMA (SEQ ID NO: 2); Assay 4) or EGFR wild type (EGFR WT; Assay 5) with constructs obtained from GenScript and grown in DMEM supplemented with 10% fetal bovine serum and 15 μg/ml blasticidin. […] Serially diluted compounds were added to the plates for 1 hour at 37° C./5% CO2. EGFR WT cells were stimulated with 100 ng/ml rEGF for an additional 10 minutes at 37° C./5% CO2.
After compound incubation, medium was removed from the cells, which were then fixed in 3.7% formaldehyde in PBS at room temperature for 20 minutes. Following a wash with PBS, cells were permeabilized with 100% methanol at room temperature for 10 minutes. Cells were then washed with PBS/0.05% Tween-20 and blocked with Odyssey blocking buffer (LI-COR Biosciences) for at least 1 hour at room temperature. Antibodies to phosphorylated ErbB2 (Y1196, Cell Signaling #6942) or phosphorylated EGFR (Y1068, Cell Signaling #3777) and GAPDH (Millipore #MAB374) were added to the cells in blocking buffer containing 0.05% azide and incubated overnight at 4° C. After washing with PBS/0.05% Tween-20, the cells were incubated with fluorescently labeled secondary anti-rabbit antibody (LiCOR, IRDye 800CW #926-32211) and anti-mouse antibody (Molecular Probes, Alexa Fluor 680 #A21058) for 1 hour at room temperature in the dark. Cells were then washed and analyzed for fluorescence at both wavelengths using the Odyssey Infrared Imaging System (LI-COR Biosciences). Phosphorylated ErbB2 and EGFR signal was normalized to GAPDH signal to generate curves and calculate IC50 values.

ErbB2 WT = ErbB2 WT (Homo sapiens (Human), UniProt P04626); assay: ErbB Enzyme Assay (HTRF KinEASE-TK), Assay 2; assay type: biochemical
Experimental: The kinases were incubated with 250 nM TK-substrate biotin (CisBio, part of cat #62TKOPEC) at 1 mM ATP along with test compounds in a buffer consisting of 25 mM HEPES, pH 7.4, 10 mM MgCl2, 0.01% Triton X-100, and 2% DMSO in a volume of 8 μL. […] After 30-minute incubation at 22° C., the reaction was quenched by adding 8 μL of quench solution containing 62.5 nM Sa-XL665 and 0.25×TK-Ab-Cryptate in HTRF detection buffer (all from CisBio, part of cat #62TKOPEC).

EGFR = EGFR (Homo sapiens (Human), UniProt P00533); assay: ErbB Enzyme Assay (HTRF KinEASE-TK), Assay 3; assay type: biochemical
[2] = EGF-stimulated EGFR WT phosphorylation
[3] = cellular EGFR WT phosphorylation, EGF-stimulated
[4] = cellular ErbB2 YVMA phosphorylation

Sequence of ErbB2 with Exon 20 YVMA insertion (HER2-YVMA) (P04626 other isoform, or with tags, fused parts or gaps ins YVMA behind 775): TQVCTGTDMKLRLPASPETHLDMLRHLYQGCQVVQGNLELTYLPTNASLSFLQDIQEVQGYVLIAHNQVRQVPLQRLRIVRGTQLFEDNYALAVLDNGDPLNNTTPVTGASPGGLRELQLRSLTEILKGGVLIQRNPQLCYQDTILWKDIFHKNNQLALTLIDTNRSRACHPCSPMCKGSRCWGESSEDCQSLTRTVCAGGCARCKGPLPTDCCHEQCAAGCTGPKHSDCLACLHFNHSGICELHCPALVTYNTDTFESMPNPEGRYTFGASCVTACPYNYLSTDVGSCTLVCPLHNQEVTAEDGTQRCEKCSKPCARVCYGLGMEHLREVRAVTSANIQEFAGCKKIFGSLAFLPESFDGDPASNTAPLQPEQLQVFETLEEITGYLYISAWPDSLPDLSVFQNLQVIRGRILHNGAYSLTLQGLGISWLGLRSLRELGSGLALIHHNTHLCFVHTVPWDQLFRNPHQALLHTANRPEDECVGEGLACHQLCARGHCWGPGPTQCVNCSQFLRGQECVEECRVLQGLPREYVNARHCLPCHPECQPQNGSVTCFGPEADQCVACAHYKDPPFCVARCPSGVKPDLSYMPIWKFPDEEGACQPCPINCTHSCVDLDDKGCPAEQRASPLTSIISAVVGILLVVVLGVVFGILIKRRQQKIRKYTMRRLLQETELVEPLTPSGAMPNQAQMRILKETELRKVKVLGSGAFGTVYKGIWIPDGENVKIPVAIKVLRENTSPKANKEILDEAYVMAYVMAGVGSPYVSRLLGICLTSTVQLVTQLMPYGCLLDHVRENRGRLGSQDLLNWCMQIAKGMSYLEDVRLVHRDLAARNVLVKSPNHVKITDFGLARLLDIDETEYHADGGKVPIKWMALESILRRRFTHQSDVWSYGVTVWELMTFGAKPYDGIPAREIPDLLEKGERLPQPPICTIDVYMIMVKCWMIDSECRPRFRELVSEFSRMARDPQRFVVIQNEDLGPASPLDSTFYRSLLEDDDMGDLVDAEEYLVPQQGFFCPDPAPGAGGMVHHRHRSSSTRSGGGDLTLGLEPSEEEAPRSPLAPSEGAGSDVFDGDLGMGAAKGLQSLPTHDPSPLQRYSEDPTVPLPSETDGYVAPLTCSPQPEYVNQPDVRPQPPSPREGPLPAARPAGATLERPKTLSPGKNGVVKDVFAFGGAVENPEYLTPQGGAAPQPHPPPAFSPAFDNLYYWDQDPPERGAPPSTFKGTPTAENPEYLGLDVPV
Sequence of ErbB2 WT (P04626 23-1255): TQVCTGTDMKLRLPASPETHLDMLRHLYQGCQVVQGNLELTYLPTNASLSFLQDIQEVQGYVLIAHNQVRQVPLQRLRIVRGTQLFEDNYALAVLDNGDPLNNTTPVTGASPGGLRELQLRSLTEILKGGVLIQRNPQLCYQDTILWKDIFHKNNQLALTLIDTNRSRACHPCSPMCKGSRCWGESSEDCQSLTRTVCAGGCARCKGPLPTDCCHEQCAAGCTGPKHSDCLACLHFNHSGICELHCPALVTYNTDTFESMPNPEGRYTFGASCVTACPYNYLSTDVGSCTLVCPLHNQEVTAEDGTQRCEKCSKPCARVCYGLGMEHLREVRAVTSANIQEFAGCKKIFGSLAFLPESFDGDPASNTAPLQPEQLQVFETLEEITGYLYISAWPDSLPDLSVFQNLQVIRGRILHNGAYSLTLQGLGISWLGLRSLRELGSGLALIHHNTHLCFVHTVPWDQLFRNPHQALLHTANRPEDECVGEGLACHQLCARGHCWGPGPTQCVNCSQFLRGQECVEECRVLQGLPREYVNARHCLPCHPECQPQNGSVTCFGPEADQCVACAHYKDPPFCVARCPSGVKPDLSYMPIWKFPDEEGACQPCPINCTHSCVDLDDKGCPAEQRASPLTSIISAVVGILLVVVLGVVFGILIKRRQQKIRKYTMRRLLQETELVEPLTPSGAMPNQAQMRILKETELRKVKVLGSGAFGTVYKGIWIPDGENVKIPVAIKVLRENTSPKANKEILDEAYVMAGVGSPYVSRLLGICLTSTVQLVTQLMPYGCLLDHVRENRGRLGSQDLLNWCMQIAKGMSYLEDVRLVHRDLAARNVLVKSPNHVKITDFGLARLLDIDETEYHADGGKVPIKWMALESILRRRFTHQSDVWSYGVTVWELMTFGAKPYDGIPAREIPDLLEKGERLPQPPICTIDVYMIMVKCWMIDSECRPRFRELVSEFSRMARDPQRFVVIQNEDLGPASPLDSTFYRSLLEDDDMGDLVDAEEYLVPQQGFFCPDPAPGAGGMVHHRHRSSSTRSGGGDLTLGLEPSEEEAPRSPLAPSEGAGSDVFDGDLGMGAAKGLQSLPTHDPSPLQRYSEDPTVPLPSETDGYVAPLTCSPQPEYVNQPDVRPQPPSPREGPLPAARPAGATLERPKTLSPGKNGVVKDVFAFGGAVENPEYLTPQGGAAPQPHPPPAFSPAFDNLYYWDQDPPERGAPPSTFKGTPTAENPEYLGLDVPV
Sequence of EGFR (P00533 25-1210): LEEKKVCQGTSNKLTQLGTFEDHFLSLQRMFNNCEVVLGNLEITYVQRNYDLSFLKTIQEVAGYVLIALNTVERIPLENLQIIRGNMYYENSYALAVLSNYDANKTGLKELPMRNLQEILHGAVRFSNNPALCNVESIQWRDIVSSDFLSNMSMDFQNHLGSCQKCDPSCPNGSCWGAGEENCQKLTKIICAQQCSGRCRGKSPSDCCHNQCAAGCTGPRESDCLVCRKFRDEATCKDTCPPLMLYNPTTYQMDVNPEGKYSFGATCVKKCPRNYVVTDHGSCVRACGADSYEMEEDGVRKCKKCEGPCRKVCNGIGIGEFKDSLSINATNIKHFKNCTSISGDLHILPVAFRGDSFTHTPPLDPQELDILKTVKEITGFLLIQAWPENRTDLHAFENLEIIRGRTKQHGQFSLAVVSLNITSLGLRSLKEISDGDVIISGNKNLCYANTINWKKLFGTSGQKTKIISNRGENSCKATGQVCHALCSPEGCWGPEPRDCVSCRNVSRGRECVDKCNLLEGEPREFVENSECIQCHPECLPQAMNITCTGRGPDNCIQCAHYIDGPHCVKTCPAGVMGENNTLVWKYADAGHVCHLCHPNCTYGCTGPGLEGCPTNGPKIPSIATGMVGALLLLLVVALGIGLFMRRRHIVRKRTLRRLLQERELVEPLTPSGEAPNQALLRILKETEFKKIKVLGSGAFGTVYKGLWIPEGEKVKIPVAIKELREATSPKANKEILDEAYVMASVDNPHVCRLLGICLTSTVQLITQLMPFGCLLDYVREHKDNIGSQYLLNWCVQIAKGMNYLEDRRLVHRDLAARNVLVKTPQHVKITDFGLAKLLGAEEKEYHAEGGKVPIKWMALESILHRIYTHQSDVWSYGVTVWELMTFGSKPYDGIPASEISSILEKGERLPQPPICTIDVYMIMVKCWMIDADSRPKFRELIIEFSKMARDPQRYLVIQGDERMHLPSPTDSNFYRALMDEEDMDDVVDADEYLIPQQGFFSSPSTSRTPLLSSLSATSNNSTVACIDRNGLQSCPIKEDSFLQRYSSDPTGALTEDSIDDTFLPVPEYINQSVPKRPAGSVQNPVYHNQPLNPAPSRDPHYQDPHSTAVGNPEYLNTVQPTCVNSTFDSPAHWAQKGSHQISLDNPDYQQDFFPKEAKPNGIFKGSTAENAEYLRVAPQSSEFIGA
Sequence of EGFR wild type (EGFR WT) (P00533 25-1210): as above

## C=CC(=O)N1CCN(c2nc3c(Nc4ccc(Oc5ccn6ncnc6c5)c(C)c4F)ncnc3cc2Cl)CC1(C)C [Example 160, 1-(4-(4-((4-([1,2,4]triazolo[1,5-a]pyridin-7-yloxy)-2-fluoro-3-methylphenyl)amino)-7-chloropyrido[3,2-d]pyrimidin-6-yl)-2,2-dimethylpiperazin-1-yl)prop-2-en-1-one]
EGFR wild type (EGFR WT); [2]
  IC50: ≥ 5000 nM
[1]; ErbB2 YVMA phosphorylation
  IC50: 165 nM
ErbB2 WT; ErbB2 WT enzyme
  IC50: 515 nM
EGFR; EGFR enzyme
  IC50: ≥ 10000 nM

## C=CC(=O)N1[C@@H](C)CN(c2ccc3ncnc(Nc4cc(Cl)c(Oc5ccc6c(c5)ncn6C)cc4F)c3n2)C[C@@H]1C [Example 258]
EGFR wild type (EGFR WT); [3]
  IC50: ≥ 5000 nM
[1]; [4]
  IC50: 99.9 nM
ErbB2 WT; ErbB2 WT enzyme assay
  IC50: 10000 nM
EGFR; EGFR enzyme assay
  IC50: ≥ 10000 nM

## CC#CC(=O)N1CCC[C@@H](c2ccc3ncnc(Nc4ccc(Oc5ccn6ncnc6c5)c(C)c4F)c3n2)CC1 (single isomer, unassigned) [Example 212]
EGFR wild type (EGFR WT); [2]
  IC50: ≥ 5000 nM
[1]; ErbB2 YVMA phosphorylation
  IC50: 386 nM
ErbB2 WT; ErbB2 WT enzyme
  IC50: 66.2 nM
EGFR; EGFR enzyme
  IC50: 3380 nM

## C=CC(=O)N1CCN(c2ccc3ncnc(Nc4ccc(Oc5ccc6c(c5)ncn6C)c(C)c4F)c3n2)C[C@@H]1C1CC1 [Example 162, (S)-1-(2-cyclopropyl-4-(4-((2-fluoro-3-methyl-4-((1-methyl-1H-benzo[d]imidazol-5-yl)oxy)phenyl)amino)pyrido[3,2-d]pyrimidin-6-yl)piperazin-1-yl)prop-2-en-1-one]
EGFR wild type (EGFR WT); [2]
  IC50: ≥ 5000 nM
[1]; ErbB2 YVMA phosphorylation
  IC50: 25.7 nM
ErbB2 WT; ErbB2 WT enzyme
  IC50: 342 nM
EGFR; EGFR enzyme
  IC50: ≥ 10000 nM

## CC#CC(=O)N1C[C@@H]2C[C@H]1CN2c1ccc2ncnc(Nc3ccc(Oc4ccn5ncnc5c4)c(Cl)c3F)c2n1 [Example 316]
EGFR wild type (EGFR WT); [3]
  IC50: 1450 nM
[1]; [4]
  IC50: 61.6 nM
ErbB2 WT; ErbB2 WT enzyme assay
  IC50: 23.1 nM
EGFR; EGFR enzyme assay
  IC50: 1970 nM

## C=CC(=O)N1C[C@H]2CC[C@H](c3ccc4ncnc(Nc5ccc(Oc6ccn7ncnc7c6)c(C)c5F)c4n3)[C@H]2C1 [Example 411]
EGFR wild type (EGFR WT); [3]
  IC50: 1440 nM
[1]; [4]
  IC50: 35.2 nM
ErbB2 WT; ErbB2 WT enzyme assay
  IC50: 44.9 nM
EGFR; EGFR enzyme assay
  IC50: 598 nM

## C=CC(=O)N1CCCC(c2ccc3ncnc(Nc4ccc(Oc5ccn6ncnc6c5)c(Cl)c4F)c3n2)CC1 (stereo not shown) [Example 399]
EGFR wild type (EGFR WT); [3]
  IC50: 461 nM
[1]; [4]
  IC50: 19 nM
ErbB2 WT; ErbB2 WT enzyme assay
  IC50: 1.9 nM
EGFR; EGFR enzyme assay
  IC50: 177 nM

## C=CC(=O)N1CCCC(c2ccc3ncnc(Nc4cc(C)c(Oc5ccn6ncnc6c5)cc4F)c3n2)C1 (stereo not shown) [Example 370]
EGFR wild type (EGFR WT); [3]
  IC50: 3170 nM
[1]; [4]
  IC50: 47.3 nM
ErbB2 WT; ErbB2 WT enzyme assay
  IC50: 56 nM
EGFR; EGFR enzyme assay
  IC50: 1990 nM

## C=CC(=O)N1CCN(c2ccc3ncnc(Nc4ccc(Oc5ccn6ncnc6c5)c(C)c4F)c3n2)C[C@@H]1C(C)(C)C [Example 295]
EGFR wild type (EGFR WT); [3]
  IC50: ≥ 5000 nM
[1]; [4]
  IC50: 79.3 nM
ErbB2 WT; ErbB2 WT enzyme assay
  IC50: 153 nM
EGFR; EGFR enzyme assay
  IC50: 1030 nM

## C=CC(=O)N1CCCCC(c2ccc3ncnc(Nc4cc(C)c(Oc5ccn6ncnc6c5)cc4F)c3n2)C1 (stereo not shown) [Example 376]
EGFR wild type (EGFR WT); [3]
  IC50: 4490 nM
[1]; [4]
  IC50: 36 nM
ErbB2 WT; ErbB2 WT enzyme assay
  IC50: 33.5 nM
EGFR; EGFR enzyme assay
  IC50: 2110 nM

## C=CC(=O)N1C[C@H]2CC[C@@H]1C[C@@H]2c1ccc2ncnc(Nc3ccc(Oc4cnc5c(c4)ncn5C)c(C)c3F)c2n1 [Example 422]
EGFR wild type (EGFR WT); [3]
  IC50: ≥ 5000 nM
[1]; [4]
  IC50: 51.7 nM
ErbB2 WT; ErbB2 WT enzyme assay
  IC50: 157 nM
EGFR; EGFR enzyme assay
  IC50: 4010 nM

## C=CC(=O)N1CCN(c2ccc3ncnc(Nc4cc(Cl)c(Oc5cnc6c(c5)ncn6C)cc4F)c3n2)C[C@H]1C1CC1 [Example 430]
EGFR wild type (EGFR WT); [3]
  IC50: ≥ 5000 nM
[1]; [4]
  IC50: 38.2 nM
ErbB2 WT; ErbB2 WT enzyme assay
  IC50: 308 nM
EGFR; EGFR enzyme assay
  IC50: ≥ 10000 nM

## CC#CC(=O)N1CCN(c2ccc3ncnc(Nc4ccc(Oc5ccn6ncnc6c5)c(C)c4F)c3n2)CC1(C)C [Example 179, 1-(4-(4-((4-([1,2,4]triazolo[1,5-a]pyridin-7-yloxy)-2-fluoro-3-methylphenyl)amino)pyrido[3,2-d]pyrimidin-6-yl)-2,2-dimethylpiperazin-1-yl)but-2-yn-1-one]
EGFR wild type (EGFR WT); [2]
  IC50: ≥ 5000 nM
[1]; ErbB2 YVMA phosphorylation
  IC50: 103 nM
ErbB2 WT; ErbB2 WT enzyme
  IC50: 74 nM
EGFR; EGFR enzyme
  IC50: 7630 nM
